Reference: paper PMC10999085, “Synthesis, anticancer evaluation, molecular docking and ADME study of novel pyrido[4ʹ,3ʹ:3,4]pyrazolo[1,5-a]pyrimidines as potential tropomyosin receptor kinase A (TrKA) inhibitors” (BMC Chemistry, 2024)
In brackets after ≈: the same amount, converted by molar mass.

Legend:
HepG2 cells = assay: Annexin V-FITC apoptosis assay; assay type: cell-based, human; conditions: for Apoptosis Early / Apoptosis Late / Necrosis: HepG2, 48 h, Annexin V-FITC/PI; for increase of early apoptosis ratio / increase of late apoptosis rate: HepG2, compared with untreated control cells
Experimental: HepG-2 cells were harvested and incubated with compounds 7b, 15b, 16a and 16c separately for 48 h. Then, the cells were collected and washed with PBS two successive times followed by centrifugation. After that, the cells were treated with Annexin V-FITC and propidium iodide (PI) using the apoptosis detection kit (BD Biosciences and Annexin V-FITC and PI binding were analyzed by a flow cytometer.
Early and late apoptosis was determined after treatment of HepG2 cells with compounds 7b, 15b, 16a and 16c compared with untreated control cells. The late apoptosis rate increased by about 13, 20, 4 and 3 times, respectively, showing a higher efficiency than the early apoptosis ratio 5, 2, 8 and 6 times, respectively.
As mentioned above, HepG-2 cells were collected and incubated separately with compounds 7b, 15b, 16a and 16c for 48 hr. Cells were then collected and washed twice consecutively with PBS and centrifuged. After that, the cells were treated with Annexin V-FITC and propidium iodide (PI) using an apoptosis detection kit (BD Biosciences, San Jose, CA) according to the manufacturer's instructions. The biding of Annexin V-FITC and PI was analyzed by ﬂow cytometer.

[1] = target: T1, Tropomyosin receptor kinase A (TrKA) (Homo sapiens, UniProt P04629); assay: Tropomyosin receptor kinase A (TrKA) inhibitory assay (Kinase-Glo MAX kit); assay type: biochemical; conditions: in vitro kinase assay, recombinant TrkA
T1 construct: purchased
T1 sequence (P04629 33-796): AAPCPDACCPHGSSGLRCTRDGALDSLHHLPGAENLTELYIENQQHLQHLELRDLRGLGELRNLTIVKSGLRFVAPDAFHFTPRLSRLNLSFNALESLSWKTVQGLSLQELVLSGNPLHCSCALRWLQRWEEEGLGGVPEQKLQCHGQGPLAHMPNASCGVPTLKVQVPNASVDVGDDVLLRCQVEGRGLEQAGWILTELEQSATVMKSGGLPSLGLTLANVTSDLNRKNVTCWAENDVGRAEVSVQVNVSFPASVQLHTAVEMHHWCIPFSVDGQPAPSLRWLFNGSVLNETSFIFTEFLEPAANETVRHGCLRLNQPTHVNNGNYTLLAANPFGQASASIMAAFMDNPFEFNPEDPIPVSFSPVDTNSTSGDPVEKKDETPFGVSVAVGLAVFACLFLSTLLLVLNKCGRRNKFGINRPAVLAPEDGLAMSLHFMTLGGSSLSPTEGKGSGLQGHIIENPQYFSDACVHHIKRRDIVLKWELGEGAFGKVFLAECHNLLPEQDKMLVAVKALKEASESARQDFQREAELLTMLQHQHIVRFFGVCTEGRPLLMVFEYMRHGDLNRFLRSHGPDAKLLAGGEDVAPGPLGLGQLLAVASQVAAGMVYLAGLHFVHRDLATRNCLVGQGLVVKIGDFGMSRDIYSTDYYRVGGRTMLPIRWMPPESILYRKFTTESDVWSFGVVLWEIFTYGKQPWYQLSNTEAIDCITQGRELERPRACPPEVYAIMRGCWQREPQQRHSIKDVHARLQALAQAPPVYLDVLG
Description: (§1) The TrkA assay Kit is designed to measure TrkA activity for screening and profiling applications using Kinase-Glo® MAX as a detection reagent. The TrkA Assay Kit comes in a convenient 96-well format, with enough purified recombinant TrkA enzyme, TrkA substrate, ATP and kinase assay buffer for 100 enzyme reactions. The method was discussed in details in the ESI.
as §1, with “reactions.” for “reactions. The method was discussed in details in the ESI.”
The assay protocol: all samples and controls should be tested in duplicate. Dissolve 5x Kinase Assay Buffer 1, ATP, and PTK Substrate Poly (Glu:Tyr 4:1) (10 mg/ml). 2). The master mixture (25 μl per well) was prepared by N wells x (6 μl 5x Kinase Assay Buffer 1 + 1 μl ATP (500 μM) + 1 μl PTK Substrate Poly (Glu:Tyr 4:1) (10mg/ml) + 17 μl water). Add 5 μl of Inhibitor solution of each well labeled as “Test Inhibitor”. For the “Positive Control" and “Blank”, add 5 μl of the same solution without inhibitor (Inhibitor buffer). Prepare 3 ml of 1x Kinase assay buffer 1 by mixing 600 μl of 5x Kinase assay buffer 1 with 2400 μl water 3 ml of 1x Kinase assay buffer is sufficient for 100 reactions. To the wells designated as "Blank", add 20 μl of 1x Kinase assay buffer 1and thaw TrkA enzyme on ice. Upon first thaw, briefly spin tube containing enzyme to recover full content of the tube. Calculate the amount of TrkA required for the assay and dilute enzyme to 5 ng/μl with 1x Kinase assay buffer. Store remaining undiluted enzyme in aliquots at -80°C. Then initiate reaction by adding 20 μl of diluted TrkA enzyme to the wells designated “Positive Control” and "Test Inhibitor Control". Incubate at 30°C for 45minutes and thaw Kinase-Glo Max reagent. After the 45 minute reaction, add 50 μl of Kinase-Glo Max reagent to each well. Cover plate with aluminum foil and incubate the plate at room temperature for 15 minutes. Immediately read sample in a luminometer or microtiter-plate capable of reading chemiluminescence. “Blank” value is subtracted from all readings.

HepG2 cell line = assay: MTT assay, HepG2 cell line; assay type: cell-based, human; conditions: for Cytotoxicity at 5 µg/l: HepG2, 5 µg/l; for Cytotoxicity at 5 µg/l / Cytotoxicity at 10 µg/l / Cytotoxicity at 20 µg/l: MTT, 24 hr treatment, in % (unit assumed); for Cytotoxicity at 10 µg/l: HepG2, 10 µg/l; for Cytotoxicity at 20 µg/l: HepG2, 20 µg/l; for IC50: Homo sapiens, HepG2, MTT, read-out: IC50 (drug concentration that inhibited 50% of cell proliferation)
Procedure, shortened: (§2)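 Cells in RPMI-1640 with 10% FBS were seeded at 1.0x10^4 cells/well and cultured 48 h, then exposed to compound for 24 hr. Viability was measured by MTT reduction (4 hr), with formazan dissolved in DMSO and read at 570 nm, relative to untreated cells. Values are means of three independent triplicate experiments.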

MCF7 cell line = assay: MTT assay, MCF7 cell line; assay type: cell-based, human; conditions: 24 hr treatment, in % (unit assumed); for Cytotoxicity at 5 µg/l: MCF7, 5 µg/l; for Cytotoxicity at 10 µg/l: MCF7, 10 µg/l; for Cytotoxicity at 20 µg/l: MCF7, 20 µg/l
Procedure, shortened: as §2

IC50 [1] [nM] | IC50 (HepG2 cell line) [ng/mL] | Structure (SMILES) | Apoptosis Early (HepG2 cells) [%] | Apoptosis Late (HepG2 cells) [%] | Necrosis (HepG2 cells) [%] | apoptosis-inducing effect (HepG2 cells; HepG2, as stated in the abstract) [%] | increase of early apoptosis ratio (HepG2 cells) [times] | increase of late apoptosis rate (HepG2 cells) | Cytotoxicity at 5 µg/l (HepG2 cell line) | Cytotoxicity at 10 µg/l (HepG2 cell line) | Cytotoxicity at 20 µg/l (HepG2 cell line) | Cytotoxicity at 5 µg/l (MCF7 cell line) | Cytotoxicity at 10 µg/l (MCF7 cell line) | Cytotoxicity at 20 µg/l (MCF7 cell line)
184 | 4.25 (≈ 0.0122 µM) | COc1ccc(C=C2C(=O)NC(=O)c3c2nn2c(C)cc(C)nc32)cc1 [Compound 7b] | 5.71 | 13.72 | 5.46 | 34.70 | 5 | about 13 times | 55.11 | 69.08 | 85.16 | 60.48 | 79.12 | 95.03
214 | 3.56 (≈ 0.0106 µM) | Cc1cc(O)n2nc3c(c2n1)C(=O)NC(=O)C3=NNc1ccccc1 [Compound 16a, 4-Hydroxy-2-methyl-7-(2-phenylhydrazono)pyrido[4ʹ,3ʹ:3,4]pyrazolo[1,5-a]pyrimid-ine-8,10(7H,9H)-dione] | 8.26 | 4.32 | 2.75 |  | 8 | ~4 times | 54.39 | 66.36 | 72.80 | 55.09 | 57.34 | 77.25
128 | 3.43 (≈ 0.00935 µM) | COc1ccc(NN=C2C(=O)NC(=O)c3c2nn2c(O)cc(C)nc32)cc1 [Compound 16c, 4-Hydroxy-7-(2-(4-methoxyphenyl)hydrazono)-2-methylpyrido[4ʹ,3ʹ:3,4]pyrazolo[1,5-a]pyrimidine-8,10(7H,9H)-dione] | 6.31 | 3.20 | 2.56 |  | 6 | ~3 times | 59.17 | 70.57 | 84.32 | 56.81 | 62.79 | 79.61
